In US9376436B2, “2-(pyridin-2yl)-1, 7-diaza-spiro [4.4] nonane-6-one compound as voltage-gated sodium channels modulators” (CONVERGENCE PHARMACEUTICALS LIMITED, priority 2011, dated 2016):
Structures can show the parent of a compound that is named as a salt. Where two headings read alike, the source gives them in different places.

Molecular target: T1, hNaV1.7 (Homo sapiens, UniProt Q15858)
T1 construct: expressed in transfected cells; host or cells: HEK293
Test: QPatch NaV1.7 assay (whole-cell patch clamp, QPatch16x)
Type: cell-based
Details: HEK293-hNaV1.7 cells
Experimental: The compounds of the invention were tested in a QPatch NaV1.7 assay.
HEK293-hNaV1.7 cells were grown in DMEM-F12+10% FBS culture media at 37° C. At a confluency of 50-70% cells were dissociated from culture flasks & triturated to ensure unicellular cell suspension; cell density was measured & adjusted to 2-3×10^6 cells/ml. Recordings were obtained using QPatch16x. The external solution was (in mM): NaCl, 128; KCl, 5; MgCl2, 2; CaCl2, 2; Glucose, 30; HEPES, 15; pH 7.3, 305-315 mOsm. Following seal formation and whole-cell access using internal solution (containing in mM: CsF, 135; EGTA/CsOH, 1/5; HEPES 10; NaCl, 10; pH 7.3, 310-320 mOsM), voltage pulse protocols were applied. Initially a steady state inactivation voltage protocol was used to determine the half-maximal voltage for steady state inactivation (V1/2 SSI). Two holding voltages were used to determine test drug inhibition: −90 mV, where most of the channels are in a closed state; and V1/2 SSI, where half of the channels are inactivated. Currents were elicited […] by stepping to a membrane potential of 0 mV for 20 ms. Four-point cumulative concentration responses were derived by determining the peak current amplitude at each concentration of test drug over 120 second application. Curves were fitted with the Hill equation yielding pIC50 values at −90 mV and V1/2 SSI holding potentials.

[1] = holding voltage V1/2 SSI (half of channels inactivated), read-out: QP Nav1.7 SSI vhalf pIC50 (converted)
[2] = holding voltage −90 mV (most channels closed), read-out: QP Nav1.7 −90 mV pIC50 (converted)

T1 sequence (Q15858 whole entry): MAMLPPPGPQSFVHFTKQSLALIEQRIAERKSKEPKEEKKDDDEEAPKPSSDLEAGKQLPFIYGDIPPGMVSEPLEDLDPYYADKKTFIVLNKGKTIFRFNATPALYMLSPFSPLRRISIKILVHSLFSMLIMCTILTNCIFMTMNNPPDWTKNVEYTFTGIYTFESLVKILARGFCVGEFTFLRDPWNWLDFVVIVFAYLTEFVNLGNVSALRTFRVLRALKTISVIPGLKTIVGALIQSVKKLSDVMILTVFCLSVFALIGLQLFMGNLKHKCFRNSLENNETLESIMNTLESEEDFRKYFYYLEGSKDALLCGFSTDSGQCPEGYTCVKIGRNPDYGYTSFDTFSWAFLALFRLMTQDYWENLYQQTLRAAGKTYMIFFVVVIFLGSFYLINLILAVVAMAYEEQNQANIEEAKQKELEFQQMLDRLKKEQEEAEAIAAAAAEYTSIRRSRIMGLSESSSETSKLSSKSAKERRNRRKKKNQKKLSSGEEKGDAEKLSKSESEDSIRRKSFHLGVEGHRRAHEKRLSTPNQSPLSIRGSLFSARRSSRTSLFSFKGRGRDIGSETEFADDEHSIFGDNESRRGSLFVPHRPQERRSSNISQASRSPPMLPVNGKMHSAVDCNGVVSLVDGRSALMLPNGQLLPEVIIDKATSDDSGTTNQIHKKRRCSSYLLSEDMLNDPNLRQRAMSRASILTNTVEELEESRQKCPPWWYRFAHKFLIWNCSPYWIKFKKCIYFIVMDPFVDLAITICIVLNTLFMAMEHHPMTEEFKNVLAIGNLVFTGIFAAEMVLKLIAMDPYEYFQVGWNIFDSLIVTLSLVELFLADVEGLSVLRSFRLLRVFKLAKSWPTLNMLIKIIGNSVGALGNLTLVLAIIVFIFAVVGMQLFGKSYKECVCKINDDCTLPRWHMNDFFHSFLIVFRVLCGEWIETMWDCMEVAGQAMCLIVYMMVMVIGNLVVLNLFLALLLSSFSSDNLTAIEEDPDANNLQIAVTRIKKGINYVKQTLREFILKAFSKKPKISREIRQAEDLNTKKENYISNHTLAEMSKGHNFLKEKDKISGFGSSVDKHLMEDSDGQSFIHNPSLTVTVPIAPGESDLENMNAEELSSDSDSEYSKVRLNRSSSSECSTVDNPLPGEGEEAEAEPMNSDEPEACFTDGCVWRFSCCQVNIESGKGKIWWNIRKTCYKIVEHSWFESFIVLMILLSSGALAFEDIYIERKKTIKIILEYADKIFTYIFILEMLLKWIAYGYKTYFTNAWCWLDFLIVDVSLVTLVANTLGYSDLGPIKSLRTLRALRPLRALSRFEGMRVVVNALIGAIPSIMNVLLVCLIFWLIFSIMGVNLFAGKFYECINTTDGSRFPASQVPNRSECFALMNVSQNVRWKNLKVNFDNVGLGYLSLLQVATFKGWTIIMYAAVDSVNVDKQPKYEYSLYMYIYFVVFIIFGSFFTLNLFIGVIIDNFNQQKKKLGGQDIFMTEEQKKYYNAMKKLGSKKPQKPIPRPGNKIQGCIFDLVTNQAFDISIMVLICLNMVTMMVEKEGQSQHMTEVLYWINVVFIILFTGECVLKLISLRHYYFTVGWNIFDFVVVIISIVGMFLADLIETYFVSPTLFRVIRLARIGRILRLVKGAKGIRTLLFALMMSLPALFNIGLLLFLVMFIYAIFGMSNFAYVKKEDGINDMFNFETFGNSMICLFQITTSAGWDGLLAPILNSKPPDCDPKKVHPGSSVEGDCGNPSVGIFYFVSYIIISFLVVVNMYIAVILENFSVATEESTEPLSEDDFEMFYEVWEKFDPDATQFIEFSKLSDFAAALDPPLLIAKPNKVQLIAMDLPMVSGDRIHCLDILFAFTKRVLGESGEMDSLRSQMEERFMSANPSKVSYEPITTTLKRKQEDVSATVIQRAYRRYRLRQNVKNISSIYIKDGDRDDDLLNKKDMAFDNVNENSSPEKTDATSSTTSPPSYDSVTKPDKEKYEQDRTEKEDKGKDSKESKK

Structure (SMILES)	IC50 [1]	IC50 [2]
Cc1cc(-c2cc(C(F)(F)F)ccc2C(N)=O)cc([C@H]2CC[C@@]3(CCN(C)C3=O)N2)n1 [Example 24, 2-[2-Methyl-6-[(2R,5S)-7-methyl-6-oxo-1,7-diazaspiro[4.4]nonan-2-yl]-4-pyridyl]-4-(trifluoromethyl)benzamide hydrochloride]	398 µM	1000 µM
Cc1cc(-c2cc(C(F)(F)F)ccc2C(N)=O)cc([C@@H]2CC[C@@]3(CCN(C)C3=O)N2)n1 [Example 25, 2-[2-Methyl-6-[(2S,5S)-7-methyl-6-oxo-1,7-diazaspiro[4.4]nonan-2-yl]-4-pyridyl]-4-(trifluoromethyl)benzamide hydrochloride]	1580 µM	
Cc1cc(-c2cc(C(F)(F)F)ccc2C(N)=O)cc([C@H]2CC[C@]3(CCN(C)C3=O)N2)n1 [Example 26, 2-[2-Methyl-6-[(2R,5R)-7-methyl-6-oxo-1,7-diazaspiro[4.4]nonan-2-yl]-4-pyridyl]-4-(trifluoromethyl)benzamide hydrochloride]	794 µM	
Cc1cc(-c2cc(C(F)(F)F)ccc2C(N)=O)cc([C@@H]2CC[C@]3(CCN(C)C3=O)N2)n1 [Example 27, 2-[2-Methyl-6-[(2S,5R)-7-methyl-6-oxo-1,7-diazaspiro[4.4]nonan-2-yl]-4-pyridyl]-4-(trifluoromethyl)benzamide hydrochloride]	39800 µM	
Cc1cc(-c2ccc(C(F)(F)F)cc2)cc([C@H]2CC[C@@]3(CCN(C)C3=O)N2)n1 [Example 28, (2R,5S)-7-Methyl-2-[6-methyl-4-[4-(trifluoromethyl)phenyl]-2-pyridyl]-1,7-diazaspiro[4.4]nonan-6-one hydrochloride]	5.01 µM	31.6 µM

Next, values leading:

IC50 [1]	IC50 [2]	Structure (SMILES)
20 µM	126 µM	Cc1cc(-c2ccc(C(F)(F)F)cc2)cc([C@@H]2CC[C@@]3(CCN(C)C3=O)N2)n1 [Example 29, (2S,5S)-7-Methyl-2-[6-methyl-4-[4-(trifluoromethyl)phenyl]-2-pyridyl]-1,7-diazaspiro[4.4]nonan-6-one hydrochloride]
5.01 µM	39.8 µM	Cc1cc(-c2ccc(C(F)(F)F)cc2)cc([C@@H]2CC[C@]3(CCN(C)C3=O)N2)n1 [Example 30, (2S,5R)-7-Methyl-2-[6-methyl-4-[4-(trifluoromethyl)phenyl]-2-pyridyl]-1,7-diazaspiro[4.4]nonan-6-one hydrochloride]
20 µM	79.4 µM	Cc1cc(-c2ccc(C(F)(F)F)cc2)cc([C@H]2CC[C@]3(CCN(C)C3=O)N2)n1 [Example 31, (2R,5R)-7-Methyl-2-[6-methyl-4-[4-(trifluoromethyl)phenyl]-2-pyridyl]-1,7-diazaspiro[4.4]nonan-6-one hydrochloride]
39.8 µM	251 µM	CN1CC[C@@]2(CC[C@H](c3cc(-c4ccccc4F)ccn3)N2)C1=O [Example 32, (2R,5S)-2-[4-(2-Fluoro-phenyl)-pyridin-2-yl]-7-methyl-1,7-diaza-spiro[4.4]nonan-6-one hydrochloride]
39.8 µM	126 µM	CN1CC[C@@]2(CC[C@@H](c3cc(-c4ccccc4F)ccn3)N2)C1=O [Example 33, (2S,5S)-2-[4-(2-Fluoro-phenyl)-pyridin-2-yl]-7-methyl-1,7-diaza-spiro[4.4]nonan-6-one hydrochloride]
158 µM	251 µM	CN1CC[C@]2(CC[C@@H](c3cc(-c4ccccc4F)ccn3)N2)C1=O [Example 34, (2S,5R)-2-[4-(2-Fluoro-phenyl)-pyridin-2-yl]-7-methyl-1,7-diaza-spiro[4.4]nonan-6-one hydrochloride]
100 µM	398 µM	CN1CC[C@]2(CC[C@H](c3cc(-c4ccccc4F)ccn3)N2)C1=O [Example 35, (2R,5R)-2-[4-(2-Fluoro-phenyl)-pyridin-2-yl]-7-methyl-1,7-diaza-spiro[4.4]nonan-6-one hydrochloride]
